Data: patent US20250197658A1, “ANTIOXIDANT STABILIZERS FOR DIRECT FABRICATION OF ORTHODONTIC APPLIANCES” (Align Technology, Inc., priority 2023, published 2025)

Assay: Photoinitiator stability: concentrations in recovered resin composition after printing cycles
Format: physicochemical
Settings: for change of concentration in recovered resin composition: with increasing printing cycles

| Compound | concentration in recovered resin composition (1 printing cycle) | concentration in recovered resin composition (2 printing cycles) | concentration in recovered resin composition (4 printing cycles) | concentration in recovered resin composition (6 printing cycles) | change of concentration in recovered resin composition |
| --- | --- | --- | --- | --- | --- |
| Cc1cc(C)c(C(=O)P(=O)(C(=O)c2c(C)cc(C)cc2C)c2ccccc2)c(C)c1 [BAPO, phenylbis(2,4,6-trimethylbenzoyl) phosphine oxide] | 0.98 wt % | 1 wt % | 0.98 wt % | 0.99 wt % | remained constant |
| Vitamin E | 0.0077 wt % | 0.0063 wt % | 0.0043 wt % | 0.0026 wt % | decreased |
